Experimental data: US20250019387A1 (Frontier Medicines Corporation, priority 0001, published 2025)

What follows are compounds tested against KRAS G12C and cRAF (Ras-binding domain) interaction (Homo sapiens (Human), UniProt P01116, C118S/C51S/C80L/G12C) (assay: Inhibition of KRAS G12C and cRAF binding (AlphaScreen)). Conditions: GMPPNP-loaded KRAS G12C, 19-20 hours incubation with compound; read-out: IC50 (Inhibition of KRAS G12C and cRAF Binding).
Procedure: Compounds were diluted in 100% DMSO and each compound concentration was spotted at 200 nl/well onto low volume, white 384 well plates. […] Plates were incubated for 19-20 hours. A mixture of RBD and the AlphaScreen streptavidin donor and glutathione acceptor beads diluted in 25 mM Hepes, pH 7.4, 150 mM NaCl, 5 mM MgCl2, 0.01% TritonX-100 and 2% DMSO was then added at 10 ul/well and incubated for 60-90 minutes before the samples were read for emission at 570 nm after excitation of the donor beads at 680 nm. All incubations were performed at room temperature. […] IC50s were determined using nonlinear regression fit of [inhibitor]vs. response (4 parameters). […]

KRAS G12C and cRAF (Ras-binding domain) interaction, sequence (P01116 other isoform, or with tags, fused parts or gaps G12C/C51S/C80L/C118S): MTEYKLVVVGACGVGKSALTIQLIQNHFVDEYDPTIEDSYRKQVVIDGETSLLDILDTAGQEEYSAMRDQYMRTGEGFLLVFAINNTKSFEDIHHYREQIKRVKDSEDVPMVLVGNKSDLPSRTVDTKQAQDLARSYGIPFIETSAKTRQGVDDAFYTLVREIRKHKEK

Q: `CN(c1nc(OC[C@@]23CCCN2C[C@H](F)C3)nc2c1CCN(c1cccc3cccc(Cl)c13)C2)[C@@H]1CCN(C(=O)/C=C/c2nc(C3(C)CC3)no2)C1` [Example 114, (E)-1-((R)-3-((7-(8-chloronaphthalen-1-yl)-2-(((2R,7aS)-2-fluorohexahydro-1H-pyrrolizin-7a-yl)methoxy)-5,6,7,8-tetrahydropyrido[3,4-d]pyrimidin-4-yl)(methyl)amino)pyrrolidin-1-yl)-3-(3-(1-methylcyclopropyl)-1,2,4-oxadiazol-5-yl)prop-2-en-1-one] was tested. Which IC50 did it give?
A: Its IC50 is 0.01 to 0.1 µM.

Q: For `CN(CC1CN(C(=O)/C=C/CN2CCOCC2)C1)c1nc(OC[C@@]23CCCN2C[C@H](F)C3)nc2c(F)c(-c3cccc4cccc(Cl)c34)ncc12` [Example 89, (E)-1-(3-(((7-(8-chloronaphthalen-1-yl)-8-fluoro-2-(((2R,7aS)-2-fluorotetrahydro-1H-pyrrolizin-7a(5H)-yl)methoxy)pyrido[4,3-d]pyrimidin-4-yl)(methyl)amino)methyl)azetidin-1-yl)-4-morpholinobut-2-en-1-one], which IC50 is on record?
A: The IC50 was 0.01 to 0.1 µM.

Q: Which IC50 does the source give for `C[C@H](F)c1noc(/C=C/C(=O)N2CC[C@@H](N(C)c3nc(OC[C@@]45CCCN4C[C@H](F)C5)nc4c(F)c(-c5cccc6cccc(Cl)c56)ncc34)C2)n1` [Example 77, (E)-1-((R)-3-((7-(8-chloronaphthalen-1-yl)-8-fluoro-2-(((2R,7aS)-2-fluorohexahydro-1H-pyrrolizin-7a-yl)methoxy)pyrido[4,3-d]pyrimidin-4-yl)(methyl)amino)pyrrolidin-1-yl)-3-(3-((S)-1-fluoroethyl)-1,2,4-oxadiazol-5-yl)prop-2-en-1-one] here?
A: The IC50 was < 0.01 µM.

Q: Which IC50 does the source give for `Cc1nsc(/C=C/C(=O)N2CC[C@@H](N(C)c3nc(OC[C@@]45CCCN4C[C@H](F)C5)nc4c(F)c(-c5cccc6cccc(Cl)c56)ncc34)C2)n1` [Example 75, (E)-1-((R)-3-((7-(8-chloronaphthalen-1-yl)-8-fluoro-2-(((2R,7aS)-2-fluorotetrahydro-1H-pyrrolizin-7a(5H)-yl)methoxy)pyrido[4,3-d]pyrimidin-4-yl)(methyl)amino)pyrrolidin-1-yl)-3-(3-methyl-1,2,4-thiadiazol-5-yl)prop-2-en-1-one] here?
A: The IC50 was 0.01 to 0.1 µM.

Q: Which IC50 does the source give for `Cc1cc(/C=C/C(=O)N2CC[C@@H](N(C)c3nc(OC[C@@]45CCCN4C[C@H](F)C5)nc4c(F)c(-c5cccc6ccc(F)c(Cl)c56)ncc34)C2)nc(C)n1` [Example 272, (E)-1-((R)-3-((7-(8-chloro-7-fluoronaphthalen-1-yl)-8-fluoro-2-(((2R,7aS)-2-fluorotetrahydro-1H-pyrrolizin-7a(5H)-yl)methoxy)pyrido[4,3-d]pyrimidin-4-yl)(methyl)amino)pyrrolidin-1-yl)-3-(2,6-dimethylpyrimidin-4-yl)prop-2-en-1-one] here?
A: Its IC50 is 0.01 to 0.1 µM.

Q: `CCc1c(F)ccc2cccc(-c3ncc4c(N(C)[C@@H]5CCN(C(=O)/C=C/c6ccnc(C)n6)C5)nc(OC[C@@]56CCCN5C[C@H](F)C6)nc4c3F)c12` [Example 277, (E)-1-((R)-3-((7-(8-ethyl-7-fluoronaphthalen-1-yl)-8-fluoro-2-(((2R,7aS)-2-fluorohexahydro-1H-pyrrolizin-7a-yl)methoxy)pyrido[4,3-d]pyrimidin-4-yl)(methyl)amino)pyrrolidin-1-yl)-3-(2-methylpyrimidin-4-yl)prop-2-en-1-one] was tested. Which IC50 did it give?
A: Its IC50 is 0.1 to 0.5 µM.

Q: Which IC50 does the source give for `C=CC(=O)[C@@H]1[C@@H]2CN(c3nc(OC[C@@H]4CCCN4C)nc4c3CCN(c3cccc5cccc(Cl)c35)C4)C[C@@H]21` [Example 45, 1-((1R,5S,6R)-3-(7-(8-chloronaphthalen-1-yl)-2-(((S)-1-methylpyrrolidin-2-yl)methoxy)-5,6,7,8-tetrahydropyrido[3,4-d]pyrimidin-4-yl)-3-azabicyclo[3.1.0]hexan-6-yl)prop-2-en-1-one] here?
A: The IC50 was 0.01 to 0.1 µM.

Q: Which IC50 does the source give for `CC(C)N1CC[C@@H]1/C=C/C(=O)N1CC[C@@H](N(C)c2nc(OC[C@@]34CCCN3C[C@H](F)C4)nc3c(F)c(-c4cccc5cccc(Cl)c45)ncc23)C1` [Example 232, (E)-1-((R)-3-((7-(8-chloronaphthalen-1-yl)-8-fluoro-2-(((2R,7aS)-2-fluorotetrahydro-1H-pyrrolizin-7a(5H)-yl)methoxy)pyrido[4,3-d]pyrimidin-4-yl)(methyl)amino)pyrrolidin-1-yl)-3-((R)-1-isopropylazetidin-2-yl)prop-2-en-1-one] here?
A: The IC50 was 0.01 to 0.1 µM.

Q: Which IC50 does the source give for `COCCN1CC[C@@H]1/C=C/C(=O)N1CC[C@@H](N(C)c2nc(OC[C@@]34CCCN3C[C@H](F)C4)nc3c(F)c(-c4cccc5ccc(F)c(Cl)c45)ncc23)C1` [Example 212, (E)-1-((R)-3-((7-(8-chloro-7-fluoronaphthalen-1-yl)-8-fluoro-2-(((2R,7aS)-2-fluorotetrahydro-1H-pyrrolizin-7a(5H)-yl)methoxy)pyrido[4,3-d]pyrimidin-4-yl)(methyl)amino)pyrrolidin-1-yl)-3-((R)-1-(2-methoxyethyl)azetidin-2-yl)prop-2-en-1-one] here?
A: Its IC50 is 0.01 to 0.1 µM.

Q: For `CN1CCOCC1C#CC(=O)N1CC[C@@H](N(C)c2nc(OC[C@@]34CCCN3C[C@H](F)C4)nc3c(F)c(-c4cccc5cccc(Cl)c45)ncc23)C1` (stereo partly drawn) [Example 188, 1-((R)-3-((7-(8-chloronaphthalen-1-yl)-8-fluoro-2-(((2R,7aS)-2-fluorohexahydro-1H-pyrrolizin-7a-yl)methoxy)pyrido[4,3-d]pyrimidin-4-yl)(methyl)amino)pyrrolidin-1-yl)-3-(4-methylmorpholin-3-yl)prop-2-yn-1-one], which IC50 is on record?
A: The IC50 was 0.1 to 0.5 µM.

Same assay, conditions: additional exemplary compounds; KRAS G12C and cRAF binding; read-out: RAF1 RBD IC50

Q: Which IC50 does the source give for `C=CC(=O)N1CC[C@@H](N(C)c2nc(OC[C@@]34CCCN3C[C@H](F)C4)nc3c(F)c(-c4cccc5cccc(C(F)(F)F)c45)ncc23)C1` here?
A: The IC50 was 0.01 to 0.1 µM.

Q: `C=CC(=O)N1CC[C@@H](N(C)c2nc(OC[C@]34CCCN3C[C@@H](F)C4)nc3c(F)c(-c4cccc5cccc(Cl)c45)ncc23)C1` was tested. Which IC50 did it give?
A: Its IC50 is 0.1 to 0.5 µM.

Q: With `C=CC(=O)C[C@H](C)N(C)c1nc(OC[C@@H]2CCCN2C)nc2c1CCN(c1cccc3ccccc13)C2` as the compound, how does the IC50 read?
A: Its IC50 is > 0.5 µM.

Q: How did the IC50 turn out when `Cc1nccc(/C=C/C(=O)N2CC3CC(C2)N3c2nc(OC[C@@]34CCCN3C[C@H](F)C4)nc3c(F)c(-c4cccc5cccc(Cl)c45)ncc23)n1` was run?
A: Its IC50 is > 0.5 µM.

Q: Which IC50 does the source give for `CN(C)C/C=C/C(=O)N1CC(CN(C)c2nc(OCC34CCCN3CCC4)nc3c(F)c(-c4cccc5cccc(Cl)c45)ncc23)C1` here?
A: The IC50 was 0.01 to 0.1 µM.

Q: Which IC50 does the source give for `C#Cc1c(F)ccc2cccc(-c3ncc4c(N(C)[C@H]5CCN(C(=O)C=C)C5)nc(OC[C@]56CCCN5C[C@H](F)C6)nc4c3F)c12` here?
A: Its IC50 is > 0.5 µM.

Q: With `C=CC(=O)[C@@H](C)CN(C)c1nc(OC[C@@H]2CCCN2C)nc2c1CCN(c1cccc3ccccc13)C2` as the compound, how does the IC50 read?
A: Its IC50 is 0.01 to 0.1 µM.

Q: Which IC50 does the source give for `C=CC(=O)N1CC[C@@H](N(C)c2nc(OC[C@@]34CCCN3C[C@H](F)C4)nc3c2CCN(c2cccc4cccc(Cl)c24)C3)C1` here?
A: Its IC50 is 0.1 to 0.5 µM.

Q: With `C=CC(=O)N1CC[C@@H](Nc2nc(OC[C@@]34CCCN3C[C@H](F)C4)nc3c2CCN(c2cccc4cccc(Cl)c24)C3)C1` as the compound, how does the IC50 read?
A: Its IC50 is > 0.5 µM.

Q: For `C=CC(=O)N1CC(CN(C)c2nc(OC[C@@]34CCCN3C[C@H](F)C4)nc3c(F)c(-c4cccc5ccc(F)c(Cl)c45)ncc23)C1`, which IC50 is on record?
A: Its IC50 is 0.01 to 0.1 µM.

Q: Which IC50 does the source give for `C=CC(=O)N1CC[C@H](F)[C@@H](N(C)c2nc(OC[C@@]34CCCN3C[C@H](F)C4)nc3c(F)c(-c4cccc5cccc(Cl)c45)ncc23)C1` here?
A: The IC50 was > 0.5 µM.
